In patent US10774068B2, “Composition and methods for inhibiting mammalian sterile 20-like kinase 1” (The Scripps Research Institute, priority 2015, dated 2020) one finds IC50 data, which are given here for 46 molecules.

Experiment [1] has as its target MST2 (Homo sapiens (Human), UniProt Q13188). Kind of experiment: MST2 biochemical LanthaScreen Eu Kinase Binding Assay. As to the method: (§1) MST1 and MST2 biochemical LanthaScreen Eu Kinase Binding Assay was based on the binding and displacement of kinase tracer to the kinase of interest. Compounds in 1000×DMSO stock solution was dispensed using automated dispensing system (Labcyte) to 384 well Corning Microplate at 15 nL, 5 uL of Kinase buffer A was added to each well. Plates were shaken and incubated for 1 min to ensure well dissolution of compounds.
On the technique in general: In TR-FRET formats the signal depends on donor and acceptor labels being close together.

The target in experiment [2] is MST1 (Homo sapiens (Human), UniProt Q13043). Kind of experiment: MST1 biochemical LanthaScreen Eu Kinase Binding Assay. As for the experimental part: as §1
Setting [3] is: read-out: Kinase Binding assay-MST2 IC50.
[4] abbreviates: read-out: Kinase Binding assay-MST1 IC50.

Read-outs that look alike come from different tables or passages of the source. Where only a bound is given, the exact number is not on record here.

MST2, sequence (Q13188 whole entry): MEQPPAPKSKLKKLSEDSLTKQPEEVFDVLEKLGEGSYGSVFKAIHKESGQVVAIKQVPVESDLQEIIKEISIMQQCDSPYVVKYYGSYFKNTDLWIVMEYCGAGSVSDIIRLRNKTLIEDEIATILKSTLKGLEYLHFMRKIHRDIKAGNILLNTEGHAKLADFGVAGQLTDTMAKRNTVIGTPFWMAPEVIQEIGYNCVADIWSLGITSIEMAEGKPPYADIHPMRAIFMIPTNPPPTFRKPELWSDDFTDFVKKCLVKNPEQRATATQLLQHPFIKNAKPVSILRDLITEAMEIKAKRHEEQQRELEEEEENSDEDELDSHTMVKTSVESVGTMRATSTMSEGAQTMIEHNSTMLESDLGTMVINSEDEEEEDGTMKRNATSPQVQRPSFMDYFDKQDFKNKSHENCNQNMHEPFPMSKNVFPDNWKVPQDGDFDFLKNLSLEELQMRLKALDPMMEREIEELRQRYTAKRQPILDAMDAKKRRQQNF
MST1, sequence (Q13043 whole entry): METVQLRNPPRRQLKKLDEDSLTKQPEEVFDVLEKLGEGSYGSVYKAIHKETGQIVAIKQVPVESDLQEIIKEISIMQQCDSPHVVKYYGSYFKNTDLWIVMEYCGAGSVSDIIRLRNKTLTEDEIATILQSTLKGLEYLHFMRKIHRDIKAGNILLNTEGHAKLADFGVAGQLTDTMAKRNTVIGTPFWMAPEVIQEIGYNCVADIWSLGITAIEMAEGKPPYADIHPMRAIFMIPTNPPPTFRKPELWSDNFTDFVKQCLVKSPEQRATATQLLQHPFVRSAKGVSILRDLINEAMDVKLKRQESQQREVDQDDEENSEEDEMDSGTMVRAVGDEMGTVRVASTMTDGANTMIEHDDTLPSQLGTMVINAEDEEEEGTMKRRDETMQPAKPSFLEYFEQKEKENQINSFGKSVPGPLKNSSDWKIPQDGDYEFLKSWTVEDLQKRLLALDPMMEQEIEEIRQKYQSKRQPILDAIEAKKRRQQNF

Take `CCOc1cc2ncc(C#N)c(Nc3ccc(OCc4ccc(C)cn4)c(Cl)c3)c2cc1NC(=O)CCCN(C)C` [Example 11]: the IC50 in experiment [1] (setting [3]) is < 100 nM; in experiment [2] (setting [4]), 100 to 1000 nM.

Take `CCOc1cc2ncc(C#N)c(Nc3ccc(OCc4nc(Br)ccc4C)c(Cl)c3)c2cc1NC(=O)CCCN(C)C` [Example 76]: the IC50 in experiment [1] (setting [3]) and in experiment [2] (setting [4]) was < 100 nM each time.

`CCOc1cc2ncc(C#N)c(Nc3ccc(OCc4ncccc4C)c(Br)c3)c2cc1NC(=O)CCCN(C)C` [Example 24]: the IC50 in experiment [1] (setting [3]) and in experiment [2] (setting [4]) was < 100 nM each time.

Take `CCOc1cc2ncc(C#N)c(Nc3cc(C)c(OCc4ncccc4C)cc3C)c2cc1NC(=O)CCCN(C)C` [Example 34]: the IC50 in experiment [1] (setting [3]) and in experiment [2] (setting [4]) was < 100 nM each time.

For the molecule `CCOc1cc2ncc(C#N)c(Nc3ccc(OCc4ncccc4C)c(C)c3)c2cc1NC(=O)CCCN(C)C` [Example 21], the IC50 in experiment [1] was 100 to 1000 nM; in experiment [2] (setting [4]), < 100 nM.

For `CCOc1cc2ncc(C#N)c(Nc3ccc(OCc4cccc(Cl)n4)c(Cl)c3)c2cc1NC(=O)CCCN(C)C` [Example 7], the IC50 in experiment [1] (setting [3]) and in experiment [2] (setting [4]) was < 100 nM throughout.

On to `CCOc1cc2ncc(C#N)c(Nc3ccc(OCc4nc5ccccc5nc4C)c(Cl)c3)c2cc1NC(=O)CCCN(C)C` [Example 42], for which the IC50 in experiment [1] is 100 to 1000 nM; in experiment [2] (setting [4]), < 100 nM.

`CCOc1cc2ncc(C#N)c(Nc3ccc(OCc4ccccn4)c(Cl)c3)c2cc1NC(C)=O` [Example 85]: the 50% inhibitory concentration (IC50) in experiment [1] was 1000 to 10000 nM; in experiment [2] (setting [4]), < 100 nM.

With `CCOc1cc2ncc(C#N)c(Nc3cc(Cl)c(OCc4ncccc4C)cc3Br)c2cc1NC(=O)CCCN(C)C` [Example 79], the IC50 in experiment [1] (setting [3]) and in experiment [2] (setting [4]) was < 100 nM throughout.

In the case of `CCOc1cc2ncc(C#N)c(Nc3cccc(Cl)c3)c2cc1NC(C)=O` [Example 127], the half-maximal inhibitory concentration (IC50) in experiment [1] (setting [3]) and in experiment [2] (setting [4]) was < 100 nM in each case.

As for `CCOc1cc2ncc(C#N)c(Nc3ccc(OCc4ncccc4C#N)c(Cl)c3)c2cc1NC(=O)CCCN(C)C` [Example 19], the IC50 in experiment [1] (setting [3]) and in experiment [2] (setting [4]) was < 100 nM in each case.

For the molecule `CCOc1cc2ncc(C#N)c(Nc3ccc(OCc4ncccc4C)c(OC(F)(F)F)c3)c2cc1NC(=O)CCCN(C)C` [Example 80], the IC50 in experiment [1] and in experiment [2] (setting [4]) was 100 to 1000 nM in each case.

Turning to `CCOc1cc2ncc(C#N)c(Nc3ccc(OCc4ncccc4C)c(Cl)c3)c2cc1NC(C)=O` [Example 84, N-(4-(3-chloro-4-((3-methylpyridin-2-yl)methoxy)phenylamino)-3-cyano-7-ethoxyquinolin-6-yl)acetamide], the half-inhibitory concentration (IC50) in experiment [1] (setting [3]) and in experiment [2] (setting [4]) was < 100 nM each time.

In the case of `CCOc1cc2ncc(C#N)c(Nc3ccc(NC(=O)c4ncccc4C)c(Cl)c3)c2cc1NC(=O)CCCN(C)C` [Example 108, N-(2-chloro-4-(3-cyano-6-(4-(dimethylamino)butanamido)-7-ethoxyquinolin-4-ylamino)phenyl)-3-methylpicolinamide], the concentration for half-maximal inhibition (IC50) in experiment [1] and in experiment [2] was 100 to 1000 nM each time.

Turning to `CCOc1cc2ncc(C#N)c(Nc3ccc(OCc4ncccc4C)c(C)c3C)c2cc1NC(=O)CCCN(C)C` [Example 33], the IC50 in experiment [1] (setting [3]) and in experiment [2] (setting [4]) was < 100 nM in each case.

Turning to `CCOc1cc2ncc(C#N)c(Nc3ccc(O)cc3C)c2cc1NC(=O)CCCN(C)C` [Example 139], the figures for the half-inhibitory concentration (IC50) in experiment [1] and in experiment [2] (setting [4]) were 1000 to 10000 nM and 100 to 1000 nM, respectively.

Regarding `CCOc1cc2ncc(C#N)c(Nc3ccc(OCc4ncccc4Cl)c(Cl)c3)c2cc1NC(=O)CCCN(C)C` [Example 35], the half-inhibitory concentration (IC50) in experiment [1] (setting [3]) and in experiment [2] (setting [4]) was < 100 nM each time.

Consider `CCOc1cc2ncc(C#N)c(Nc3ccc(OCc4cccc(OC)n4)c(Cl)c3)c2cc1NC(=O)CCCN(C)C` [Example 6], for which the IC50 in experiment [1] and in experiment [2] was 100 to 1000 nM each time.

For the molecule `CCOc1cc2ncc(C#N)c(Nc3ccc(OCc4ncccc4C(=O)OC)cc3Cl)c2cc1NC(=O)CCCN(C)C` [Example 82], the IC50 in experiment [1] and in experiment [2] (setting [4]) was 100 to 1000 nM each time.

In the case of `CCOc1cc2ncc(C#N)c(Nc3ccc(OCc4ccc(Cl)cn4)c(Cl)c3)c2cc1NC(=O)CCCN(C)C` [Example 14], the IC50 in experiment [1] and in experiment [2] was 100 to 1000 nM in each case.

Regarding `CCOc1cc2ncc(C#N)c(Nc3ccc(OCc4ccccn4)c(Cl)c3)c2cc1NC(=O)CCCN1CCOCC1` [Example 99], the IC50 in experiment [1] and in experiment [2] (setting [4]) was 100 to 1000 nM each time.

For `CCOc1cc2ncc(C#N)c(Nc3ccc(OCc4ccccn4)c(Cl)c3)c2cc1NC(=O)CCCN1CCCCC1` [Example 97], the values for the IC50 in experiment [1] and in experiment [2] (setting [4]) were 100 to 1000 nM and < 100 nM, respectively.

On to `CCOc1cc2ncc(C#N)c(Nc3ccc(OCc4ncc(C)o4)c(Cl)c3)c2cc1NC(=O)CCCN(C)C` [Example 39], for which the IC50 is 100 to 1000 nM in experiment [1] and < 100 nM in experiment [2] (setting [4]).

With `CCOc1cc2ncc(C#N)c(Nc3ccc(OCc4ccc(F)cn4)c(Cl)c3)c2cc1NC(=O)CCCN(C)C` [Example 13], the half-inhibitory concentration (IC50) in experiment [1] and in experiment [2] was 100 to 1000 nM in each case.

Take `CCOc1cc2ncc(C#N)c(Nc3ccc(OCc4ncccc4C)cc3)c2cc1NC(=O)CCCN(C)C` [Example 20]: the half-maximal inhibitory concentration (IC50) in experiment [1] was 100 to 1000 nM; in experiment [2] (setting [4]) it was < 100 nM.

With `CCOc1cc2ncc(C#N)c(Nc3ccc(OCc4ncccc4F)c(Cl)c3)c2cc1NC(=O)CCCN(C)C` [Example 16], the half-inhibitory concentration (IC50) in experiment [1] (setting [3]) and in experiment [2] (setting [4]) was < 100 nM each time.

For `CCOc1cc2ncc(C#N)c(Nc3cc(Cl)c(OCc4ncccc4C)cc3C)c2cc1NC(=O)CCCN(C)C` [Example 78], the half-maximal inhibitory concentration (IC50) in experiment [1] (setting [3]) and in experiment [2] (setting [4]) was < 100 nM in each case.

Take `CCOc1cc2ncc(C#N)c(Nc3ccc(OCc4ccccn4)c(Cl)c3)c2cc1NC(=O)CCCN1CCCC1` [Example 95, N-(4-(3-chloro-4-(pyridin-2-ylmethoxy)phenylamino)-3-cyano-7-ethoxyquinolin-6-yl)-4-(pyrrolidin-1-yl)butanamide]: the IC50 in experiment [1] is 100 to 1000 nM; in experiment [2] (setting [4]), < 100 nM.

`CCOc1cc2ncc(C#N)c(Nc3ccc(OCc4ncccc4C)cc3C(F)(F)F)c2cc1NC(=O)CCCN(C)C` [Example 29]: the IC50 in experiment [1] and in experiment [2] was 100 to 1000 nM throughout.

Consider `CCOc1cc2ncc(C#N)c(Nc3cc(Cl)c(OCc4ncccc4C)c(Cl)c3)c2cc1NC(=O)CCCN(C)C` [Example 26], for which the half-maximal inhibitory concentration (IC50) in experiment [1] (setting [3]) and in experiment [2] (setting [4]) was < 100 nM each time.

On to `CCOc1cc2ncc(C#N)c(Nc3ccc(OCc4cccc(Br)n4)c(Cl)c3)c2cc1NC(=O)CCCN(C)C` [Example 3], for which the 50% inhibitory concentration (IC50) in experiment [1] (setting [3]) and in experiment [2] (setting [4]) was < 100 nM in each case.

As to `CCOc1cc2ncc(C#N)c(Nc3ccc(CCc4ccccn4)c(Cl)c3)c2cc1NC(=O)CCCN(C)C` [Example 107, N-(4-(3-chloro-4-(2-(pyridin-2-yl)ethyl)phenylamino)-3-cyano-7-ethoxyquinolin-6-yl)-4-(dimethylamino)butanamide], the concentration for half-maximal inhibition (IC50) in experiment [1] (setting [3]) and in experiment [2] (setting [4]) was 100 to 1000 nM throughout.

On to `CCOc1cc2ncc(C=O)c(Nc3ccc(OCc4ncccc4C)cc3Cl)c2cc1NC(=O)CCCN(C)C` [Example 145, N-(4-(2-chloro-4-((3-methylpyridin-2-yl)methoxy)phenylamino)-7-ethoxy-3-formylquinolin-6-yl)-4-(dimethylamino)butanamide], for which the IC50 in experiment [1] and in experiment [2] was 1000 to 10000 nM each time.

Regarding `CCOc1cc2ncc(C#N)c(Nc3ccc(OCc4ncccc4C4CC4)c(Cl)c3)c2cc1NC(=O)CCCN(C)C` [Example 44], the half-inhibitory concentration (IC50) in experiment [1] and in experiment [2] (setting [4]) was 100 to 1000 nM each time.

Turning to `CCOc1cc2ncc(C#N)c(Nc3ccc(OCc4ncccc4C)cc3C)c2cc1NC(=O)/C=C/CN(C)C` [Example 93], the 50% inhibitory concentration (IC50) in experiment [1] (setting [3]) and in experiment [2] (setting [4]) was < 100 nM throughout.

For `CCOc1cc2ncc(C#N)c(Nc3ccc(OCc4ncccc4Br)c(Cl)c3)c2cc1NC(=O)CCCN(C)C` [Example 15], the IC50 in experiment [1] (setting [3]) and in experiment [2] (setting [4]) was < 100 nM in each case.

In the case of `CCOc1cc2ncc(C#N)c(Nc3ccc(OCc4nc(Br)ccc4C)cc3Cl)c2cc1NC(=O)CCCN(C)C` [Example 77], the half-inhibitory concentration (IC50) in experiment [1] (setting [3]) and in experiment [2] (setting [4]) was < 100 nM throughout.

On to `CCOc1cc2ncc(C#N)c(Nc3ccc(OCc4ncccc4C(F)(F)F)cc3Cl)c2cc1NC(=O)CCCN(C)C` [Example 81], for which the 50% inhibitory concentration (IC50) in experiment [1] (setting [3]) and in experiment [2] (setting [4]) was < 100 nM throughout.

As for `CCOc1cc2ncc(C#N)c(Nc3ccc(OCc4ccccn4)c(Cl)c3)c2cc1NC(=O)CCCOC` [Example 102], the IC50 in experiment [1] and in experiment [2] (setting [4]) was 100 to 1000 nM each time.

Turning to `CCOc1cc2ncc(C#N)c(Nc3ccc(OCc4ncccc4C(F)(F)F)c(Cl)c3)c2cc1NC(=O)CCCN(C)C` [Example 17], the IC50 in experiment [1] (setting [3]) and in experiment [2] (setting [4]) was < 100 nM in each case.

`CCOc1cc2ncc(C#N)c(Nc3ccc(OCc4cccc(C#N)n4)c(Cl)c3)c2cc1NC(=O)CCCN(C)C` [Example 5]: the IC50 is 100 to 1000 nM in experiment [1] and < 100 nM in experiment [2] (setting [4]).

On to `CCOc1cc2ncc(C#N)c(Nc3ccc(OCc4ncccc4C)c(F)c3)c2cc1NC(=O)CCCN(C)C` [Example 22], for which the IC50 in experiment [1] (setting [3]) and in experiment [2] (setting [4]) was < 100 nM in each case.

On to `CCOc1cc2ncc(C#N)c(Nc3ccc(OCc4cc(Cl)ccn4)c(Cl)c3)c2cc1NC(=O)CCCN(C)C` [Example 2], for which the IC50 in experiment [1] (setting [3]) and in experiment [2] (setting [4]) was < 100 nM in each case.

On to `CCOc1cc2ncc(C#N)c(Nc3ccc(OCc4cnc5c(c4)OCCO5)c(Cl)c3)c2cc1NC(=O)CCCN(C)C` [Example 43], for which the IC50 fell in the range of 1000 to 10000 nM in experiment [1] and 100 to 1000 nM in experiment [2] (setting [4]).

As for `CCOc1cc2ncc(C#N)c(Nc3ccc(OCc4ncccc4C)cc3Cl)c2cc1NC(=O)CCCN(C)C` [Example 25, N-(4-((2-chloro-4-((3-methyl-pyridin-2-yl)methoxy)phenyl)amino)-3-cyano-7-ethoxyquinolin-6-yl)-4-(dimethylamino)butanamide], the half-maximal inhibitory concentration (IC50) in experiment [1] (setting [3]) and in experiment [2] (setting [4]) was < 100 nM each time.

`CCOc1cc2ncc(C#N)c(Nc3ccc(OCc4cccnc4)c(Cl)c3)c2cc1NC(=O)CCCN(C)C` [Example 49]: in experiment [2] (setting [4]), the half-maximal inhibitory concentration (IC50) fell in the range of 1000 to 10000 nM.

One may read the IC50 as the midpoint of a concentration-inhibition curve.
